# In ChEMBL document CHEMBL3734713, “4-Thiazolidinone derivatives as potent antimicrobial agents: microwave-assisted synthesis, biological evaluation and docking studies” (2015):
# Legend:
# Salmonella typhimurium = experiment: Antibacterial activity against Salmonella typhimurium ATCC 13311 assessed as growth inhibition after 24 hrs at 37 degC by iodonitrotetrazolium chloride staining based microdilution broth assay; format: functional, Salmonella enterica subsp. enterica serovar Typhimurium; conditions: Salmonella enterica, ATCC 13311, 24 h
# Listeria monocytogenes = experiment: Antibacterial activity against Listeria monocytogenes NCTC 7973 assessed as growth inhibition after 24 hrs at 37 degC by iodonitrotetrazolium chloride staining based microdilution broth assay; format: functional; conditions: NCTC 7973, 24 h
# Staphylococcus aureus = experiment: Antibacterial activity against Staphylococcus aureus ATCC 6538 assessed as growth inhibition after 24 hrs at 37 degC by iodonitrotetrazolium chloride staining based microdilution broth assay; format: functional; conditions: ATCC 6538, 24 h
# Bacillus cereus = experiment: Antibacterial activity against clinical isolates of Bacillus cereus assessed as growth inhibition after 24 hrs at 37 degC by iodonitrotetrazolium chloride staining based microdilution broth assay; format: functional
# [1] = target: Human immunodeficiency virus type 1 reverse transcriptase (Human immunodeficiency virus 1) (UniProt Q72547); experiment: Inhibition of HIV1 reverse transcriptase assessed as residual enzyme activity by measuring reduction in [3H]dTTP incorporation into poly(rA)-oligo(dT) at 4 uM incubated for 15 mins by scintillation counting method relative to control
# Aspergillus versicolor = experiment: Antifungal activity against Aspergillus versicolor ATCC 11730 assessed as growth inhibition after 72 hrs at 28 degC by serial dilution method; format: functional; conditions: for MIC: Aspergillus versicolor, ATCC 11730, 72 h
# Trichoderma viride = experiment: Antifungal activity against Trichoderma viride IAM 5061 assessed as growth inhibition after 72 hrs at 28 degC by serial dilution method; format: functional; conditions: for MIC: Trichoderma viride, IAM 5061, 72 h
# Pseudomonas aeruginosa = experiment: Antibacterial activity against Pseudomonas aeruginosa ATCC 27853 assessed as growth inhibition after 24 hrs at 37 degC by iodonitrotetrazolium chloride staining based microdilution broth assay; format: functional; conditions: ATCC 27853, 24 h
# Aspergillus niger = experiment: Antifungal activity against Aspergillus niger ATCC 6275 assessed as growth inhibition after 72 hrs at 28 degC by serial dilution method; format: functional; conditions: for MIC: Aspergillus niger, ATCC 6275, 72 h
# Penicillium ochrochloron = experiment: Antifungal activity against Penicillium ochrochloron ATCC 9112 assessed as growth inhibition after 72 hrs at 28 degC by serial dilution method; format: functional; conditions: for MIC: Penicillium ochrochloron, ATCC 9112, 72 h
# Escherichia coli = experiment: Antibacterial activity against Escherichia coli ATCC 35210 assessed as growth inhibition after 24 hrs at 37 degC by iodonitrotetrazolium chloride staining based microdilution broth assay; format: functional; conditions: ATCC 35210, 24 h
# Talaromyces funiculosus = experiment: Antifungal activity against Penicillium funiculosum ATCC 36839 assessed as growth inhibition after 72 hrs at 28 degC by serial dilution method; format: functional; conditions: for MIC: Talaromyces funiculosus, ATCC 36839, 72 h
# Aspergillus ochraceus = experiment: Antifungal activity against Aspergillus ochraceus ATCC 12066 assessed as growth inhibition after 72 hrs at 28 degC by serial dilution method; format: functional; conditions: for MIC: Aspergillus ochraceus, ATCC 12066, 72 h
# Aspergillus fumigatus = experiment: Antifungal activity against Aspergillus fumigatus ATCC 1022 assessed as growth inhibition after 72 hrs at 28 degC by serial dilution method; format: functional; conditions: for MIC: Aspergillus fumigatus, ATCC 1022, 72 h
# Micrococcus flavus = experiment: Antibacterial activity against Micrococcus flavus ATCC 10240 assessed as growth inhibition after 24 hrs at 37 degC by iodonitrotetrazolium chloride staining based microdilution broth assay; format: functional; conditions: ATCC 10240, 24 h
# Candida albicans = experiment: Antifungal activity against Candida albicans ATCC 10231 assessed as growth inhibition after 72 hrs at 28 degC by serial dilution method; format: functional; conditions: for MIC: Candida albicans, ATCC 10231, 72 h
# Enterobacter cloacae = experiment: Antibacterial activity against human isolate of Enterobacter cloacae assessed as growth inhibition after 24 hrs at 37 degC by iodonitrotetrazolium chloride staining based microdilution broth assay; format: functional
Compound,MBC (Salmonella typhimurium) [µM],MIC (Salmonella typhimurium) [µM],MBC (Listeria monocytogenes) [µM],MIC (Listeria monocytogenes) [µM],MBC (Staphylococcus aureus) [µM],MIC (Staphylococcus aureus) [µM],MBC (Bacillus cereus) [µM],MIC (Bacillus cereus) [µM],Activity [1] [%],MFC99.5 (Aspergillus versicolor) [×10⁻² umol/ml],MIC (Aspergillus versicolor) [µM],MFC99.5 (Trichoderma viride) [×10⁻² umol/ml],MIC (Trichoderma viride) [µM],MBC (Pseudomonas aeruginosa) [µM],MIC (Pseudomonas aeruginosa) [µM],MFC99.5 (Aspergillus niger) [×10⁻² umol/ml],MIC (Aspergillus niger) [µM],MFC99.5 (Penicillium ochrochloron) [×10⁻² umol/ml],MIC (Penicillium ochrochloron) [µM],MBC (Escherichia coli) [µM],further results
O=C1CSC(c2ccc(Cl)cc2)N1c1nc(C23CC4CC(CC(C4)C2)C3)cs1 (centres undefined),62.5,16.2,125,62.5,62.5,16.2,62.5,16.2,99,0.07,0.5,0.05,0.3,125,16.2,0.07,0.45,0.07,0.3,125,MIC (Escherichia coli): 62.5 µM; MFC99.5 (Talaromyces funiculosus): 0.07 ×10⁻² umol/ml; MIC (Talaromyces funiculosus): 0.45 µM; MFC99.5 (Aspergillus ochraceus): 0.07 ×10⁻² umol/ml; MIC (Aspergillus ochraceus): 0.5 µM; MFC99.5 (Aspergillus fumigatus): 0.07 ×10⁻² umol/ml; MIC (Aspergillus fumigatus): 0.45 µM; MBC (Micrococcus flavus): 62.5 µM; MIC (Micrococcus flavus): 30.6 µM; MFC99.5 (Candida albicans): 1.16 ×10⁻² umol/ml; MIC (Candida albicans): 5.8 µM; MBC (Enterobacter cloacae): 125 µM; MIC (Enterobacter cloacae): 62.5 µM
O=C1CSC(c2ccccc2Cl)N1c1nc(C23CC4CC(CC(C4)C2)C3)cs1 (centres undefined),125,62.5,125,16.2,125,62.5,125,30.6,99.1,1.16,5.8,1.16,5.8,125,62.5,1.16,9,1.16,5.8,125,MIC (Escherichia coli): 62.5 µM; MFC99.5 (Talaromyces funiculosus): 1.16 ×10⁻² umol/ml; MIC (Talaromyces funiculosus): 5.8 µM; MFC99.5 (Aspergillus ochraceus): 0.07 ×10⁻² umol/ml; MIC (Aspergillus ochraceus): 0.3 µM; MFC99.5 (Aspergillus fumigatus): 1.16 ×10⁻² umol/ml; MIC (Aspergillus fumigatus): 5.8 µM; MBC (Micrococcus flavus): 125 µM; MIC (Micrococcus flavus): 45 µM; MFC99.5 (Candida albicans): 2.32 ×10⁻² umol/ml; MIC (Candida albicans): 11.6 µM; MBC (Enterobacter cloacae): 125 µM; MIC (Enterobacter cloacae): 30.6 µM
COc1ccc(C2SCC(=O)N2c2nc(C34CC5CC(CC(C5)C3)C4)cs2)cc1 (centres undefined),62.5,30.6,125,62.5,62.5,30.6,30.6,16.3,100,0.58,2.9,0.29,1.4,62.5,30.6,0.58,2.9,0.14,0.9,125,MIC (Escherichia coli): 30.6 µM; MFC99.5 (Talaromyces funiculosus): 0.58 ×10⁻² umol/ml; MIC (Talaromyces funiculosus): 2.9 µM; MFC99.5 (Aspergillus ochraceus): 0.29 ×10⁻² umol/ml; MIC (Aspergillus ochraceus): 1.4 µM; MFC99.5 (Aspergillus fumigatus): 2.34 ×10⁻² umol/ml; MIC (Aspergillus fumigatus): 11.7 µM; MBC (Micrococcus flavus): 125 µM; MIC (Micrococcus flavus): 62.5 µM; MFC99.5 (Candida albicans): 2.34 ×10⁻² umol/ml; MIC (Candida albicans): 11.7 µM; MBC (Enterobacter cloacae): 125 µM; MIC (Enterobacter cloacae): 30.6 µM
